Patent US12214036B2, “Combination therapy comprising AXL/MER and PD-1/PD-L1 inhibitors” (Incyte Corporation, priority 2020, dated 2025)

Target: T1, MER (Homo sapiens, UniProt Q12866)
T1 construct: recombinant phosphorylated forms of the kinase domains for AXL, MER and TYRO3; purchased Carna Biosciences 08-108
T1 sequence (Q12866 587-858 limits assumed): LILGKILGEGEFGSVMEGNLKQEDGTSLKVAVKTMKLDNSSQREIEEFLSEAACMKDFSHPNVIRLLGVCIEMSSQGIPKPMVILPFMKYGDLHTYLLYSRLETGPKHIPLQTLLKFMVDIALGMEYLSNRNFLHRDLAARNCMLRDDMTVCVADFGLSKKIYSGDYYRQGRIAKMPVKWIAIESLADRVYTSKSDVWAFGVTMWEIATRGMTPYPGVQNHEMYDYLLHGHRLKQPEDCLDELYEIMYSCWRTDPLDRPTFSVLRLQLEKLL
Assay: TR-FRET kinase assay, cMER
Assay type: biochemical
Description: The biochemical potency of Compound 1 to inhibit the enzymatic activity of TAM family members was investigated by TR-FRET assays using recombinant phosphorylated forms of the kinase domains for AXL, MER and TYRO3.
Phospho-AXL (pAXL), cMER and Tyro3 kinase activities were measured by time-resolved fluorescence energy transfer (TR-FRET) assays. Autophosphorylation of AXL was carried out before the kinase assay by incubating the recombinant AXL protein (ThermoFisher Scientific; #PV4275) in buffer containing 50 mM Tris, pH 7.5, 0.2 mg/mL AXL, 5 mM ATP, 20 mM MgCl2 and 2 mM dithiothreitol (DTT) at room temperature for 1 hour. […] The plate was incubated for 30 minutes at room temperature, and homogenous time resolved fluorescence (HTRF) signal was measured on a PheraStar FS plate reader (BMG Labtech, Ortenberg, Germany). Percent inhibition was calculated for each concentration, and half maximal inhibitory concentration (IC50) value was generated from curve fitting with GraphPad Prism software (San Diego, Calif.).
Compound reversibility was determined by measuring the recovery of cMER enzymatic activity after a rapid and large dilution of the cMER-inhibitor complex. cMER, ATP, and biotin-labeled peptide substrate were diluted in kinase assay buffer containing 50 mM HEPES, pH 7.5, 10 mM MgCl2, 1 mM EGTA, 0.01% NP-40, and 2 mM DTT. […]

SMILES: CC(C)C(=O)N1CCC(c2cc(-c3ccc(NC(=O)c4cn(C(C)C)c(=O)n(-c5ccccn5)c4=O)cc3)c3c(N)ncnn23)CC1 [Compound 1, N-(4-(4-Amino-7-(1-isobutyrylpiperidin-4-yl)pyrrolo[1,2-f][1,2,4]triazin-5-yl)phenyl)-1-isopropyl-2,4-dioxo-3-(pyridin-2-yl)-1,2,3,4-tetrahydropyrimidine-5-carboxamide]
- mode of inhibition with respect to ATP concentration (MER kinase assay, IC50 at 25, 100, 300, 1000 μM ATP (FIG. 1)): ATP-competitive mode of inhibition
- IC50 (average from multiple lots, n=25, read-out: IC50 against MER): 3.17 ± 1.97 nM
